Results as given in ChEMBL document CHEMBL3885861, “Open TG-GATES”.

Organism: Rattus norvegicus
Test: Open TG-GATES - Regimen: Single
Format: toxicity, organism-based, Sprague-Dawley
Set-up: regimen Single, gender Male, age 6 weeks
Settings: in vivo, po, 6 mg/kg, route gavage, dose level Middle; for APTT / Bas / Eos / Fbg / Hb / Lym / MCH / MCHC / MCV / Mono / Neu / PT / Plat / RBC / Ret / WBC: tissue Blood; for KIDNEY_L / KIDNEY_R / KIDNEY_TOTAL: tissue Kidney; for LIVER: tissue Liver; for ALP / ALT / AST / BUN / CRE / Ca / Cl / DBIL / GLC / IP / K / LDH / Na / PL / RALB / TBIL / TC / TG / TP / gamma-GTP: tissue Plasma

OCCN1CCN(CCCN2c3ccccc3Sc3ccc(C(F)(F)F)cc32)CC1 [FLUPHENAZINE]
TERMINAL_BW (9 h): 194 g | APTT (9 h): 16.5 s | Bas (9 h): 0% | Eos (9 h): 0.6% | Fbg (9 h): 227 mg/dL | Hb (9 h): 13.2 g/dL | Lym (9 h): 79.2% | MCH (9 h): 22.1 pg | MCHC (9 h): 33.3% | MCV (9 h): 66.3 fL | Mono (9 h): 5.8% | Neu (9 h): 14.8% | PT (9 h): 12.5 s | Plat (9 h): 112.2 x10_4/uL | RBC (9 h): 598.2 x10_4/ul | Ret (9 h): 7.8% | WBC (9 h): 74.5 x10_2/uL | KIDNEY_L (9 h): 0.9 g | KIDNEY_R (9 h): 1 g | KIDNEY_TOTAL (9 h): 1.9 g | LIVER (9 h): 7.9 g | ALP (9 h): 730.2 IU/L | ALT (9 h): 30.4 IU/L | AST (9 h): 54.2 IU/L | BUN (9 h): 9.2 mg/dL | CRE (9 h): 0.5 mg/dL | Ca (9 h): 10.1 mg/dL | Cl (9 h): 106.2 meq/L | DBIL (9 h): 0.038 mg/dL | GLC (9 h): 189 mg/dL | IP (9 h): 10.5 mg/dL | K (9 h): 4.2 meq/L | LDH (9 h): 83.8 IU/L | Na (9 h): 138.4 meq/L | PL (9 h): 133.2 mg/dL | RALB (9 h): 3.7 g/dL | TBIL (9 h): 0.4 mg/dL | TC (9 h): 80.6 mg/dL | TG (9 h): 21.4 mg/dL | TP (9 h): 5.5 g/dL | gamma-GTP (9 h): 1.8 IU/L | TERMINAL_BW (24 h): 201.5 g | APTT (24 h): 16.7 s | Bas (24 h): 0% | Eos (24 h): 1.2% | Fbg (24 h): 208 mg/dL | Hb (24 h): 13.7 g/dL | Lym (24 h): 81.4% | MCH (24 h): 21.6 pg | MCHC (24 h): 33.2% | MCV (24 h): 64.9 fL | Mono (24 h): 9% | Neu (24 h): 8.6% | PT (24 h): 11.9 s | Plat (24 h): 112.8 x10_4/uL | RBC (24 h): 636 x10_4/ul | Ret (24 h): 7.3% | WBC (24 h): 85.5 x10_2/uL | KIDNEY_L (24 h): 0.9 g | KIDNEY_R (24 h): 0.9 g | KIDNEY_TOTAL (24 h): 1.8 g | LIVER (24 h): 9.6 g | ALP (24 h): 748.4 IU/L | ALT (24 h): 28.2 IU/L | AST (24 h): 56.6 IU/L | BUN (24 h): 23.8 mg/dL | CRE (24 h): 0.5 mg/dL | Ca (24 h): 11 mg/dL | Cl (24 h): 103.6 meq/L | DBIL (24 h): 0.03 mg/dL | GLC (24 h): 176.8 mg/dL | IP (24 h): 8 mg/dL | K (24 h): 5 meq/L | LDH (24 h): 90 IU/L | Na (24 h): 137.2 meq/L | PL (24 h): 154.6 mg/dL | RALB (24 h): 4.2 g/dL | TBIL (24 h): 0.3 mg/dL | TC (24 h): 84.4 mg/dL | TG (24 h): 94.4 mg/dL | TP (24 h): 6.1 g/dL | gamma-GTP (24 h): 1.2 IU/L
